ChEMBL document CHEMBL5154942, “Discovery of Clinical Candidate NTQ1062 as a Potent and Bioavailable Akt Inhibitor for the Treatment of Human Tumors” (J Med Chem, 2022)
Calls of active or inactive are those of the source. The calls are words filed in the database; no cut-off is given here.

Assays:
[1] = Tmax in NCG mouse xenografted with human LNCaP cells at 12.5 mg/kg administered once daily for 18 to 21 days and measured upto 10 hrs post last dose by LC-MS/MS analysis; type: ADME, organism-based; conditions: in vivo, time 18-21 day
[2] = Metabolic stability in Sprague-Dawley rat liver microsomes assessed as half life at 1 uM measured after 60 mins by LC-MS/MS analysis; type: ADME, Microsome
[3] = AUC (0 to infinity) in overnight fasted ICR mouse at 10 mg/kg, po measured upto 24 hrs by UPLC-MS/MS analysis; type: ADME, organism-based; set-up: dose 10 mg/kg, time < 24 hrs, route po; conditions: in vivo
[4] = Apparent volume of distribution at steady state in Sprague-Dawley rat at 5 mg/kg, iv measured upto 24 hrs by UPLC-MS/MS analysis; type: ADME, organism-based; conditions: in vivo, read-out: Vdss(app)
[5] = AUC (0 to infinity) in Sprague-Dawley rat at 10 mg/kg, ig by UPLC-MS/MS analysis; type: ADME, organism-based; set-up: time infinity, dose 10 mg/kg, route ig; conditions: in vivo, po
[6] = target: Protein kinase C eta type (Homo sapiens) (UniProt P24723); test: Inhibition of PKCeta (unknown origin) at 1 uM in presence of ATP at Km concentration by mobility shift assay relative to control
Chain of Protein kinase C eta type (Homo sapiens) (P24723 whole entry): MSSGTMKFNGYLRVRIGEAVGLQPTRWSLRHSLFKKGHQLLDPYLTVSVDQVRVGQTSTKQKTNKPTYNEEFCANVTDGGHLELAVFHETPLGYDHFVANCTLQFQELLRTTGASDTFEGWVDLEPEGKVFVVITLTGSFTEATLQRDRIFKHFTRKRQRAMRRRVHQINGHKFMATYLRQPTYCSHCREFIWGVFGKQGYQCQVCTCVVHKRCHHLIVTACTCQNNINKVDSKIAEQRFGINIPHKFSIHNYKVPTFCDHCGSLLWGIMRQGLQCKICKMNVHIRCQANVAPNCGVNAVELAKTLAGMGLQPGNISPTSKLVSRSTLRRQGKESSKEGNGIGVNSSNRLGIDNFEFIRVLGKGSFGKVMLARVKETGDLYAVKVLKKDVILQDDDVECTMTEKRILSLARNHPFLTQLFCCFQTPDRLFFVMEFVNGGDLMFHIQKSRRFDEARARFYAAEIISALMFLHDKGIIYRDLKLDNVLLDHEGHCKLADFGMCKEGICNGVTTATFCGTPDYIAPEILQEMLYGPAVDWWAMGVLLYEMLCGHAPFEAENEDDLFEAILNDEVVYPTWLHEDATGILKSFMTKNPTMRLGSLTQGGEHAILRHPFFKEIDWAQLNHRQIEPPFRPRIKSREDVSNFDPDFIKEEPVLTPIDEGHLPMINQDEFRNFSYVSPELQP

[7] = target: Cytochrome P450 3A4 (Homo sapiens, UniProt P08684); test: Inhibition of CYP3A4 in human liver microsomes at 0.01 to 30 uM […] in presence of NADPH by UPLC-MS/MS analysis; type: ADME, Microsome
Chain of Cytochrome P450 3A4 (P08684 whole entry): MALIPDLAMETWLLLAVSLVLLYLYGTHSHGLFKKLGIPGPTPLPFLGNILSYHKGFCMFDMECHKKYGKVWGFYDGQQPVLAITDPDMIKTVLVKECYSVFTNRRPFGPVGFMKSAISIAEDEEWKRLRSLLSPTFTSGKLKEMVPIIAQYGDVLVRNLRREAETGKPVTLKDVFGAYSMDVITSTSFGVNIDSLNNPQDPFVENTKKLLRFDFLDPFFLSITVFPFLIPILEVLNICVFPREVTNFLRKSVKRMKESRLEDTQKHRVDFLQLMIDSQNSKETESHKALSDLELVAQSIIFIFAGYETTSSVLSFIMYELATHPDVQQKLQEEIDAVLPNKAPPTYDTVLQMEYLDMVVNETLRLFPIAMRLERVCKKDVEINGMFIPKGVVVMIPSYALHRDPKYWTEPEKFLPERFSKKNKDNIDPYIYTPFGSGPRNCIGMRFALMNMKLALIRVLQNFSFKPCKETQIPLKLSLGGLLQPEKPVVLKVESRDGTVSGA

[8] = Tmax in NCG mouse xenografted with human LNCaP cells at 25 mg/kg administered once daily for 18 to 21 days and measured upto 10 hrs post last dose by LC-MS/MS analysis; type: ADME, organism-based; conditions: in vivo, time 18-21 day
[9] = Metabolic stability in Sprague-Dawley rat liver microsomes assessed hepatic clearance at 1 uM measured after 60 mins by LC-MS/MS analysis; type: ADME, Microsome; conditions: 1 h
[10] = Cmax in Sprague-Dawley rat at 10 mg/kg, ig by UPLC-MS/MS analysis; type: ADME, organism-based; set-up: dose 10 mg/kg, route ig; conditions: in vivo, po
[11] = system: LNCaP; test: Induction of apoptosis in human LNCaP cells assessed as early apoptotic cells at 1.25 uM incubated for 72 hrs by annexin V/PI double staining based flow cytometry method (reference value: […]); type: functional
[12] = AUC (0 to infinity) in crab-eating monkey at 6 mg/kg, ig by UPLC-MS/MS analysis; type: ADME, organism-based, Macaca fascicularis; set-up: time infinity, dose 6 mg/kg, route ig; conditions: cynomolgus monkey, in vivo, po
[13] = target: Cytochrome P450 2D6 (Homo sapiens, UniProt P10635); test: Inhibition of CYP2D6 in human liver microsomes at 0.01 to 30 uM using dextromethorphan as substrate in presence of NADPH by UPLC-MS/MS analysis; type: ADME, Microsome
Chain of Cytochrome P450 2D6 (P10635 whole entry): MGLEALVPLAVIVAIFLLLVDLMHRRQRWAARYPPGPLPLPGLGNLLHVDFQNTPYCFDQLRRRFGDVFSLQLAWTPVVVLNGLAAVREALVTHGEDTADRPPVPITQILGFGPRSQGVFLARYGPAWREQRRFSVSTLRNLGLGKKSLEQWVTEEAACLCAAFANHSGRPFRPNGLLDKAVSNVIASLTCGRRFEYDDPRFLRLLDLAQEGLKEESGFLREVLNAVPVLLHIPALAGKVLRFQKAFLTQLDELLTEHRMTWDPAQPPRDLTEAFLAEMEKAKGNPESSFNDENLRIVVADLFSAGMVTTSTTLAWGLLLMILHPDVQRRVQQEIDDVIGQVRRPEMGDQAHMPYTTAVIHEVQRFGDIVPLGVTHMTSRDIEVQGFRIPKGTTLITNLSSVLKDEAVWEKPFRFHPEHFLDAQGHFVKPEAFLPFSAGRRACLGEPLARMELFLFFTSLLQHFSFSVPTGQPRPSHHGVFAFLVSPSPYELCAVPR

[14] = system: LNCaP; test: Induction of apoptosis in human LNCaP cells assessed as late apoptotic cells at 1.25 uM incubated for 72 hrs by annexin V/PI double staining based flow cytometry method (reference value: 2.75 %); type: functional
[15] = system: LNCaP; test: Induction of apoptosis in human LNCaP cells assessed as apoptotic cells at […] incubated for 72 hrs by annexin V/PI double staining based flow cytometry method (reference value: 3.95 %); type: functional; conditions: dose 2.5 µM
[16] = Metabolic stability in human liver microsomes assessed hepatic clearance at 1 uM measured after 60 mins by LC-MS/MS analysis; type: ADME, Microsome; conditions: 1 h
[17] = AUC (0 to t) in NCG mouse xenografted with human LNCaP cells at 12.5 mg/kg administered daily once for 18 to 21 days and measured upto 10 hrs post last dose by LC-MS/MS analysis; type: ADME, organism-based; conditions: in vivo
[18] = Metabolic stability in Beagle dog liver microsomes assessed as parent compound remaining at 1 uM measured after 60 mins by UPLC-MS/MS analysis; type: ADME, Canis lupus familiaris, Microsome; conditions: read-out: Stability
[19] = Metabolic stability in Beagle dog liver microsomes assessed hepatic clearance at 1 uM measured after 60 mins by LC-MS/MS analysis; type: ADME, Canis lupus familiaris, Microsome; conditions: 1 h
[20] = system: LNCaP; test: Induction of apoptosis in human LNCaP cells assessed as necrotic cells at 1.25 uM incubated for 72 hrs by annexin V/PI double staining based flow cytometry method (reference value: 2.41%); type: functional
[21] = target: Cytochrome P450 2C9 (Homo sapiens, UniProt P11712); test: Inhibition of CYP2C9 in human liver microsomes at 0.01 to 30 uM using diclofenac as substrate in presence of NADPH by UPLC-MS/MS analysis; type: ADME, Microsome
Chain of Cytochrome P450 2C9 (P11712 whole entry): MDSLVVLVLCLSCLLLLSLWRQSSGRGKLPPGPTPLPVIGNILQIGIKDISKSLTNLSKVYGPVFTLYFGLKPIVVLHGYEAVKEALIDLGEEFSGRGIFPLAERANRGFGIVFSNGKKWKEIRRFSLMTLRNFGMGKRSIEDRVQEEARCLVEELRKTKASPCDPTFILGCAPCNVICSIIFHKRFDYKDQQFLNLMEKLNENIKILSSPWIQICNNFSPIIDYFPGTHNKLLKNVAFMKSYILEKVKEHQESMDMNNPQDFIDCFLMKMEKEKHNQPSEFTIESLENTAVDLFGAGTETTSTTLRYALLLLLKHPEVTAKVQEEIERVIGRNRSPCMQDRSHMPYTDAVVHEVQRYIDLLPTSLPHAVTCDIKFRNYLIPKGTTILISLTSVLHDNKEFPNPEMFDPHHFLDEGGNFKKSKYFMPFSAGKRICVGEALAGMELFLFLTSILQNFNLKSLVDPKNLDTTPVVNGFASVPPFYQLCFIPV

[22] = Bioavailability in crab-eating monkey at 6 mg/kg, ig by UPLC-MS/MS analysis; type: ADME, organism-based, Macaca fascicularis; conditions: cynomolgus monkey, in vivo, po
[23] = Half life in Sprague-Dawley rat at 5 mg/kg, iv measured upto 24 hrs by UPLC-MS/MS analysis; type: ADME, organism-based; conditions: in vivo
[24] = Metabolic stability in Crab eating monkey liver microsomes assessed as intrinsic clearance at 1 uM measured after 60 mins by LC-MS/MS analysis; type: ADME, Macaca fascicularis, Microsome; conditions: cynomolgus monkey, 1 h
[25] = Half life in Sprague-Dawley rat at 10 mg/kg, ig by UPLC-MS/MS analysis; type: ADME, organism-based; conditions: in vivo, po
[26] = Toxicity in NCG mouse xenografted with human LNCaP cells assessed as tolerability at 12.5 to 50 mg/kg administered for 18 days; type: organism-based; conditions: in vivo, 432 h, dose 12.5-50 mg/kg, time 18 day
[27] = target: Protein kinase C alpha type (Homo sapiens) (UniProt P17252); test: Inhibition of PKCalpha (unknown origin) at 1 uM in presence of ATP at Km concentration by mobility shift assay relative to control
[28] = Metabolic stability in human liver microsomes assessed as parent compound remaining at 1 uM measured after 60 mins by UPLC-MS/MS analysis; type: ADME, Microsome; conditions: read-out: Stability
[29] = Metabolic stability in CD-1 mouse liver microsomes assessed as half life at 1 uM measured after 60 mins by LC-MS/MS analysis; type: ADME, Microsome
[30] = AUC (0 to t) in NCG mouse xenografted with human LNCaP cells at 25 mg/kg administered daily once for 18 to 21 days and measured upto 10 hrs post last dose by LC-MS/MS analysis; type: ADME, organism-based; set-up: time 18-21 day, dose 25 mg/kg; conditions: in vivo
[31] = Half life in crab-eating monkey at 3 mg/kg, iv measured upto 24 hrs by UPLC-MS/MS analysis; type: ADME, organism-based, Macaca fascicularis; conditions: cynomolgus monkey, in vivo
[32] = system: LNCaP; test: In vivo antitumor activity against human LNCap cells xenografted in NCG mouse assessed as tumor growth inhibition at 50 mg/kg administered once daily for 18 to 21 days relative to control; type: functional; conditions: time 18-21 day, read-out: TGI
[33] = system: LNCaP; test: Antitumor activity against human LNCaP cells xenografted in NCG mouse assessed as tumor growth inhibition at 25 mg/kg administered once daily for 18 to 21 days relative to control; type: functional; conditions: time 18-21 day, read-out: TGI
[34] = system: LNCaP; test: Induction of cell cycle arrest in human LNCap cells assessed as decrease in accumulation at S phase at 0.04 to 1 uM incubated for 24 hrs by flow cytometry; type: functional, cell-based; conditions: dose 0.04-1 µM
[35] = system: LNCaP; test: Induction of apoptosis in human LNCaP cells assessed as viable cells at […] incubated for 72 hrs by annexin V/PI double staining based flow cytometry method (reference value: 93.63 %); type: functional; conditions: read-out: Activity
[36] = AUC (0 to t) in Sprague-Dawley rat at 10 mg/kg, ig by UPLC-MS/MS analysis; type: ADME, organism-based; set-up: dose 10 mg/kg, route ig; conditions: in vivo, po

`CC(C)NC[C@@H](C(=O)N1CCN(c2ncnc3c2[C@H](C)CC(=O)N3)[C@H]2C[C@H]21)c1ccc(Cl)cc1` showed a Tmax [1] of 2 h, a half-life at 1 µM [2] greater than 3.82 h and an AUC(0-inf) [3] of 2170 ng·h/mL. It also gave a Vd [4] of 7.76 L/kg, an AUC(0-inf) [5] of 3890 ng·h/mL and an inhibition [6] of 90%. It also gave an IC50 [7] of 15.2 µM, a Tmax [8] of 4 h and a CLH [9] of less than 12.2 mL/min/kg. For the same compound, the Cmax [10] was 705 ng/mL, the Activity [11] was 12.6% and the AUC(0-inf) [12] was 1680 ng·h/mL. The IC50 [13] was 20.6 µM, the Activity [14] was 12.65% and the Activity [15] was 38.97%. For the same compound, the CLH [16] was 8.96 mL/min/kg, the AUC(0-t) [17] was 7030 ng·h/mL and the remaining at 1 h, 1 µM [18] was 53.6%. For the same compound, the CLH [19] was 0.0169 mL/min/kg, the Activity [20] was 4.92% and the IC50 [21] was greater than 50 µM. The bioavailability [22] was 41.2%, the half-life [23] was 2.97 h and the CLH [24] was 0.049 mL/min/kg. The half-life [25] was 3.28 h, the Activity [26] was “Non-Toxic” and the inhibition [27] was 90%. The remaining at 1 h, 1 µM [28] was 62.9%, the half-life at 1 µM [29] was greater than 6.45 h and the AUC(0-t) [30] was 13500 ng·h/mL. The half-life [31] was 7.73 h, the inhibition in vivo at 50 mg/kg [32] was 95.5% and the inhibition in vivo at 25 mg/kg [33] was 95.5%. The Activity [34] was “Active”, the viability at […] ([35]; dose 0.62 µM) was 79.7% and the viability at […] ([35]; dose 2.5 µM) was 55%. For the same compound, the AUC(0-t) [36] was 3880 ng·h/mL.
